The record followed here is patent US20080096830A1, “Anti-Inflammatory Macrolide Conjugates” (priority 2005, published 2008).

Test [1] has as its system eosinophil number in BAL fluid. The experiment in a line: Model of lung eosinophilia in mice. The note with it: OVA-sensitised mice, i.n. or i.p. dosing, compared to the vehicle treated control group. The format is in vivo, Balb/C mice. How it is done:
Male Balb/C mice with a body weight of 20-25 g were randomly divided into groups, and sensitized by an i.p. injection of ovalbumin (OVA, Sigma) on day zero and day fourteen. On the twentieth day, the mice were subjected to a challenge test by i.n. (intranasal) application of OVA (positive control or test group) or PBS (negative control). 48 hours after i.n. application of OVA, the animals were anaesthetized and the lungs were rinsed with 1 mL of PBS. The cells were separated on a Cytospin 3 cytocentrifuge (Shandon). The cells were stained in Diff-Quick (Dade) and the percentage of eosinophils was determined by differential counting of at least 100 cells. The compounds were administered daily i.n. or i.p. in different doses 2 days before the provocative test and up to the completion of the test. Compounds were administered as suspension either in carboxymethyl cellulose or in lactose solution. Fluticasone and beclomethasone were used as standard anti-inflammatory substances for comparison.

For test [2], the target named is T1, Human Prostaglandin-H Synthase-2 (hPGH-2), COX-2 (Homo sapiens, UniProt P35354).
T1 construct: expressed in transfected cells; host or cells: COS-7
T1 sequence (P35354 18-604): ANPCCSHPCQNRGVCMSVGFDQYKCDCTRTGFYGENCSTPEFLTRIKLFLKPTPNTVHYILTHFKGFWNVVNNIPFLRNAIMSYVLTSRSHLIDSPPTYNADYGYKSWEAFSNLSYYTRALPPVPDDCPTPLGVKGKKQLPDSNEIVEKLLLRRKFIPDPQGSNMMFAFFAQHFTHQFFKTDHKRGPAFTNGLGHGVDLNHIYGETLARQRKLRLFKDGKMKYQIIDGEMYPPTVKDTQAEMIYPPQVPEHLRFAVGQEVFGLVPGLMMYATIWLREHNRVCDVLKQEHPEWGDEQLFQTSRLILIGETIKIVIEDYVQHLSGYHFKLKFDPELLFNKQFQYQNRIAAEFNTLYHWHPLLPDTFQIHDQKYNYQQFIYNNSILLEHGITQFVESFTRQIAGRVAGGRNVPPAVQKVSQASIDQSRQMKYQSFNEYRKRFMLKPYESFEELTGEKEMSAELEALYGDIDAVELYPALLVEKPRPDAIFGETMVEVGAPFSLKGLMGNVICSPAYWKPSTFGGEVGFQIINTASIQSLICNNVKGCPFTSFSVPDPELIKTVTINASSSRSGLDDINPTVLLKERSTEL
The experiment in a line: Human prostaglandin-H synthase-2 (hPGH-2) inhibition assay in transfected COS-7 cells (PGE-2). The format is cell-based. The settings on record: COS-7 cells transfected with hPGH-2, arachidonic acid 20 μM, PGE-2 readout. How it is done: The cells were grown in 10% fetal bovine serum (FBS) in DMEM medium (Invitrogen Life Technologies) at 37° C. in an atmosphere with 5% CO2 and 90% moisture. 20 000 cells/well were plated in 96 well plate (Falcon). The cells in a negative control were cultured only in medium (NC), while the secretion of TNF-α in a positive control was stimulated by the addition of 500 pg/mL lipopolysaccharide (LPS, E. coli serotype 0111:B4, Sigma) (PC). The effect of the tested substances on TNF-α secretion was assessed after their addition to cell cultures stimulated with LPS (TS). […] The percentage inhibition of TNF-α production was calculated by the following equation: % inhibition=[1-(TS-NC)/(PC-NC)]×100. IC50 value was defined as the concentration of the substance at which 50% of TNF-α production was inhibited. […] After 30 minutes supernatants were removed and prostoglandin E2 (PGE-2) was measured with a PGE-2 assay kit (Cayman) following the manufacturer's instructions. No production of PGE-2 was detected in negative controls. % inhibition was calculated by the following equation: % inhibition=(1-sample PGE-2 concentration/positive control PGE-2 concentration)*100.

Regarding `CCC1OC(=O)C(C)C(O)C(C)C(OC2OC(C)CC(N(C)C)C2O)C(C)(O)CC(C)CN(CCCNC(=O)C=Cc2cc3c(s2)-c2cc(C)ccc2Sc2ccccc2-3)C(C)C(O)C1(C)O` (centres unmarked) [Compound 21], the “inhibition of relative eosinophil number in BAL fluid” value in test [1] was “statistically significant inhibition”.
Usually IC50 stands for the point on the concentration scale where inhibition reaches its midpoint. The low end stands for higher potency, the high end for lower potency. In test [2], `CCC1OC(=O)C(C)C(OC2CC(C)(OC)C(O)C(C)O2)C(C)C(OC2OC(C)CC(N(C)CCCNC(=O)C=Cc3cc4c(s3)-c3cc(Cl)ccc3Sc3ccccc3-4)C2O)C(C)(O)CC(C)CN(C)C(C)C(O)C1(C)O` (centres unmarked) [Compound 15] displayed a half-inhibitory concentration (IC50) of less than 10 µM.
